Results from the supplement of paper PMC11061612.

Assays:
[1] = test system: EB-3 (Burkitt's Lymphoma); assay: combination Emax (second highest fraction inhibited in the dose matrix, 72 h); higher = more inhibition; extreme values may be limits of the assay
Summary of the method: (§1)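 Cell lines in DMEM/F12 or RPMI with 10% FBS were plated in 1536-well plates, held 24 hours at 37°C, 5% CO2, then given two-drug dose matrices for 72 hours (DMSO typically 0.2%). Viability was read by CellTiter-Glo 2.0 luminescence and scaled as inhibition from 0 (vehicle wells) to 1 (blank wells). Combination Emax is the second-highest inhibition in the matrix; Bliss excess is observed combination effect minus expected EA + EB − EA·EB, EA and EB being single-agent effects.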

[2] = test system: SK-MM-2 (Plasma Cell Myeloma); assay: as above
Summary of the method: as §1

[3] = test system: OV-90 (Ovarian Carcinoma); assay: as above
Summary of the method: as §1

[4] = test system: JHH-1 (Hepatocellular Carcinoma); assay: as above
Summary of the method: as §1

ES-2 (Ovarian Carcinoma) [5] = assay: as above
Summary of the method: as §1

[6] = test system: LOUCY (T-Lymphoblastic Leukemia); assay: as above
Summary of the method: as §1

[7] = test system: NCI-H196 (Small Cell Lung Carcinoma); assay: as above
Summary of the method: as §1

[8] = test system: AsPC-1 (Pancreatic Carcinoma); assay: as above
Summary of the method: as §1

CHL-1 (Melanoma) = assay: as above
Summary of the method: as §1

[9] = test system: PC-14 (Lung Adenocarcinoma); assay: as above
Summary of the method: as §1

[10] = test system: NCI-H1755 (Lung Adenocarcinoma); assay: as above
Summary of the method: as §1

[11] = test system: OVTOKO (Ovarian Carcinoma); assay: as above
Summary of the method: as §1

[12] = test system: HSC-3 (Oral Cavity Carcinoma); assay: as above
Summary of the method: as §1

[13] = test system: RPMI-8866 (Chronic Myelogenous Leukemia); assay: as above
Summary of the method: as §1

[14] = test system: SW684 (Other Solid Carcinomas); assay: as above
Summary of the method: as §1

[15] = test system: RMG-I (Ovarian Carcinoma); assay: as above
Summary of the method: as §1

[16] = test system: AN3-CA (Endometrial Carcinoma); assay: as above
Summary of the method: as §1

[17] = test system: OCI-AML5 (Acute Myeloid Leukemia); assay: as above
Summary of the method: as §1

ES-2 (Ovarian Carcinoma) [18] = assay: Bliss excess, mean over the matrix (fraction); higher = more synergy
Summary of the method: as §1

[19] = test system: Becker (Low Grade Glioma); assay: as above
Summary of the method: as §1
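For Bliss excess, mean over the matrix in this document: after 72 h of two-drug dosing.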

In the case of COc1cc2c(cc1OCCCCCOc1cc3c(cc1OC)C(=O)N1C=C(C)C[C@H]1C=N3)N=C[C@@H]1CC(C)=CN1C2=O [SG3199] + O=C(c1cc(Cc2n[nH]c(=O)c3ccccc23)ccc1F)N1CCN(C(=O)C2CC2)CC1 [Olaparib] (first compound max 0.001 µM, 7x7, partner max 10 µM), the “combination Emax” value [1] is reported as 0.0944, the “combination Emax” value [2] is reported as 0.137 and the “combination Emax” value [3] is reported as 0.098. For the same compound, the “combination Emax” value [4] was 0.136, the “combination Emax” value (ES-2 (Ovarian Carcinoma) [5]) was 0.165 and the “combination Emax” value [6] was 0.12. The “combination Emax” value [7] was 0.106, the “combination Emax” value [8] was 0.02 and the “combination Emax” value (CHL-1 (Melanoma)) was 0.092. For the same compound, the “combination Emax” value [9] was 0.179, the “combination Emax” value [10] was 0.202 and the “combination Emax” value [11] was 0.111. For the same compound, the “combination Emax” value [12] was 0.157, the “combination Emax” value [13] was 0.263 and the “combination Emax” value [14] was 0.0316. The “combination Emax” value [15] was 0.114, the “combination Emax” value [16] was 0.138 and the “combination Emax” value [17] was 0.182. The Bliss excess (ES-2 (Ovarian Carcinoma) [18]) was -0.045 and the Bliss excess [19] was -0.0361.

For NC1(C(=O)N[C@@H](CCO)c2ccc(Cl)cc2)CCN(c2ncnc3[nH]ccc23)CC1 [Capivasertib] + CCN(CCO)CCCOc1ccc2c(Nc3cc(CC(=O)Nc4cccc(F)c4)[nH]n3)ncnc2c1 [AZD2811] (first compound max 10 µM, 7x7, partner max 1 µM), the “combination Emax” value [1] was 0.458, the “combination Emax” value [2] was 0.239 and the “combination Emax” value [3] was 0.364. For the same compound, the “combination Emax” value [4] was 0.232, the “combination Emax” value (ES-2 (Ovarian Carcinoma) [5]) was 0.413 and the “combination Emax” value [6] was 0.918. The “combination Emax” value [7] was 0.358, the “combination Emax” value [8] was 0.233 and the “combination Emax” value (CHL-1 (Melanoma)) was 0.567. For the same compound, the “combination Emax” value [9] was 0.505, the “combination Emax” value [10] was 0.648 and the “combination Emax” value [11] was 0.568. The “combination Emax” value [12] was 0.689, the “combination Emax” value [13] was 0.562 and the “combination Emax” value [14] was 0.617. For the same compound, the “combination Emax” value [15] was 0.315, the “combination Emax” value [16] was 0.786 and the “combination Emax” value [17] was 0.974. The Bliss excess (ES-2 (Ovarian Carcinoma) [18]) was -0.0018 and the Bliss excess [19] was -0.0136.

With CCc1c2c(nc3ccc(O)cc13)-c1cc3c(c(=O)n1C2)COC(=O)[C@]3(O)CC [SN-38] + CN(C)CCCOc1ccc(-c2ccc3ncc4c(c3c2)n(C2CCOCC2)c(=O)n4C)cn1 [AZD0156] (first compound max 0.3 µM, 7x7, partner max 1 µM) the “combination Emax” value [1] was 0.748, the “combination Emax” value [2] was 0.883 and the “combination Emax” value [3] was 0.457. For the same compound, the “combination Emax” value [4] was 0.316, the “combination Emax” value (ES-2 (Ovarian Carcinoma) [5]) was 0.912 and the “combination Emax” value [6] was 0.759. The “combination Emax” value [7] was 0.0732, the “combination Emax” value [8] was 0.135 and the “combination Emax” value (CHL-1 (Melanoma)) was 0.567. For the same compound, the “combination Emax” value [9] was 0.592, the “combination Emax” value [10] was 0.752 and the “combination Emax” value [11] was 0.194. The “combination Emax” value [12] was 0.855, the “combination Emax” value [13] was 0.982 and the “combination Emax” value [14] was 0.462. The “combination Emax” value [15] was 0.446, the “combination Emax” value [16] was 0.325 and the “combination Emax” value [17] was 0.998. For the same compound, the Bliss excess (ES-2 (Ovarian Carcinoma) [18]) was 0.0144 and the Bliss excess [19] was 0.0387.

For Cc1cc2ncnn2cc1Nc1ncc2c(n1)n(C1CCOCC1)c(=O)n2C [AZD7648] + O=C(c1cc(Cc2n[nH]c(=O)c3ccccc23)ccc1F)N1CCN(C(=O)C2CC2)CC1 [Olaparib] (first compound max 10 µM, 7x7, partner max 10 µM), the “combination Emax” value [1] was 0.377, the “combination Emax” value [2] was 0.156 and the “combination Emax” value [3] was 0.238. The “combination Emax” value [4] was 0.105, the “combination Emax” value (ES-2 (Ovarian Carcinoma) [5]) was 0.283 and the “combination Emax” value [6] was 0.444. For the same compound, the “combination Emax” value [7] was 0.129, the “combination Emax” value [8] was 0.0586 and the “combination Emax” value (CHL-1 (Melanoma)) was 0.134. For the same compound, the “combination Emax” value [9] was 0.241, the “combination Emax” value [10] was 0.263 and the “combination Emax” value [11] was 0.186. The “combination Emax” value [12] was 0.15, the “combination Emax” value [13] was 0.594 and the “combination Emax” value [14] was 0.154. The “combination Emax” value [15] was 0.192, the “combination Emax” value [16] was 0.304 and the “combination Emax” value [17] was 0.25. For the same compound, the Bliss excess (ES-2 (Ovarian Carcinoma) [18]) was -0.0354 and the Bliss excess [19] was -0.0281.

In the case of NC1(C(=O)N[C@@H](CCO)c2ccc(Cl)cc2)CCN(c2ncnc3[nH]ccc23)CC1 [Capivasertib] + COc1nnc2ccc(N3CCC(c4ccc(OCCN5CCN(C)C(=O)[C@H]5C)cc4)CC3)nn12 [AZD5153] (first compound max 10 µM, 7x7, partner max 1 µM), the “combination Emax” value [1] is reported as 0.752, the “combination Emax” value [2] is reported as 0.887 and the “combination Emax” value [3] is reported as 0.596. For the same compound, the “combination Emax” value [4] was 0.378, the “combination Emax” value (ES-2 (Ovarian Carcinoma) [5]) was 0.766 and the “combination Emax” value [6] was 0.998. The “combination Emax” value [7] was 0.326, the “combination Emax” value [8] was 0.268 and the “combination Emax” value (CHL-1 (Melanoma)) was 0.708. The “combination Emax” value [9] was 0.638, the “combination Emax” value [10] was 0.717 and the “combination Emax” value [11] was 0.604. For the same compound, the “combination Emax” value [12] was 0.861, the “combination Emax” value [13] was 0.839 and the “combination Emax” value [14] was 0.579. The “combination Emax” value [15] was 0.456, the “combination Emax” value [16] was 0.75 and the “combination Emax” value [17] was 0.769. The Bliss excess (ES-2 (Ovarian Carcinoma) [18]) was 0.0199 and the Bliss excess [19] was 0.0414.

Cn1cnc2c(F)c(Nc3ccc(Br)cc3Cl)c(C(=O)NOCCO)cc21 [Selumetinib] + CCN(CCO)CCCOc1ccc2c(Nc3cc(CC(=O)Nc4cccc(F)c4)[nH]n3)ncnc2c1 [AZD2811] (first compound max 10 µM, 7x7, partner max 1 µM) was tested, and the “combination Emax” value [1] was 0.219, the “combination Emax” value [2] was 0.161 and the “combination Emax” value [3] was 0.606. For the same compound, the “combination Emax” value [4] was 0.375, the “combination Emax” value (ES-2 (Ovarian Carcinoma) [5]) was 0.488 and the “combination Emax” value [6] was 0.909. For the same compound, the “combination Emax” value [7] was 0.0609, the “combination Emax” value [8] was 0.443 and the “combination Emax” value (CHL-1 (Melanoma)) was 0.257. The “combination Emax” value [9] was 0.587, the “combination Emax” value [10] was 0.541 and the “combination Emax” value [11] was 0.227. For the same compound, the “combination Emax” value [12] was 0.512, the “combination Emax” value [13] was 0.34 and the “combination Emax” value [14] was 0.277. For the same compound, the “combination Emax” value [15] was 0.364, the “combination Emax” value [16] was 0.268 and the “combination Emax” value [17] was 1. For the same compound, the Bliss excess (ES-2 (Ovarian Carcinoma) [18]) was -0.0322 and the Bliss excess [19] was -0.0119.

For CN(CCO)CC[C@H](CSc1ccccc1)Nc1ccc(S(=O)(=O)NC(=O)c2ccc(N3CCC([C@@H](O)c4ccccc4-c4ccc(Cl)cc4)CC3)cc2)cc1S(=O)(=O)C(F)(F)F [AZD4320] + C1CN(CCC1(C(=O)N[C@@H](CCO)C2=CC=C(C=C2)Cl)N)C3=NC=NC4=C3C=CN4 [Capivasertib] (first compound max 1 µM, 7x7, partner max 3 µM), the “combination Emax” value [1] was 0.191, the “combination Emax” value [2] was 1 and the “combination Emax” value [3] was 0.717. For the same compound, the “combination Emax” value [4] was 0.355, the “combination Emax” value (ES-2 (Ovarian Carcinoma) [5]) was 0.131 and the “combination Emax” value [6] was 1. The “combination Emax” value [7] was 0.175, the “combination Emax” value [8] was 0.643 and the “combination Emax” value (CHL-1 (Melanoma)) was 0.0871. For the same compound, the “combination Emax” value [9] was 0.255, the “combination Emax” value [10] was 0.303 and the “combination Emax” value [11] was 0.413. The “combination Emax” value [12] was 0.53, the “combination Emax” value [13] was 0.641 and the “combination Emax” value [14] was 0.449. The “combination Emax” value [15] was 0.708, the “combination Emax” value [16] was 0.625 and the “combination Emax” value [17] was 1. It also gave a Bliss excess (ES-2 (Ovarian Carcinoma) [18]) of -0.0346 and a Bliss excess [19] of -0.0355.
